We go through one molecule from US11439667B2, “Compositions and methods for expansion of embryonic hematopoietic stem cells” (Fred Hutchinson Cancer Research Center, priority 2013, dated 2022).

Test [1] has as its system mouse AGM VE-Cadherin+/CD45+ cells. As to the kind of experiment: ex vivo expansion of AGM-derived embryonic HSPC, surface phenotype by FACS. It is filed as cell-based. The conditions noted are these: combined with Notch agonist (such as Delta1ext-IgG) and one or more growth factors. From the text:
Embryos were harvested from pregnant females at 9.5 to 11.5 dpc, dissected free of maternal tissue and washed extensively in PBS containing 10% fetal bovine serum (FBS). Embryo age was precisely time by counting somite numbers. Yolks sac was dissected free from the embryo. For AGM dissections, 30 gauge needles were used to remove the caudal and rostral portions of the embryo above the forelimbs and below the hindlimbs, and subsequently dissect off the dorsal somite tissue and ventral abdominal contents. The embryo was then splayed open lying on its dorsal surface and remaining tissues surrounding the urogenital ridges were further dissected, leaving the intact AGM containing the dorsal aorta centrally. For embryos prior to AGM stage (E9.5 or less), the P-Sp region was dissected by removing the rostral and caudal portions of the embryo. Dissected yolk sac or AGM/P-Sp tissues were pooled and treated with 0.25% collagenase (Stem Cell Technologies, Vancouver, Canada) for 25-30 minutes at 37° C., pipetted to single cell suspension, and washed with PBS containing 10% FBS. For Ly6a-eGFP transgenic embryos, dissected embryos were processed separately and pooled for sorting, if indicated, following confirmation of GFP expression. […]
In general terms: A flow cytometer gives signals particle by particle.

A further test has as its system human osteosarcoma cells. The conditions noted are these: cited from earlier work.
The test system of the next test is human ESC. The following applies: Wang C, et al. Cell Res. 2012; cited from earlier work.
For the next test, the target named is T1, ALK7 (Homo sapiens, UniProt Q8NER5).
T1 sequence (Q8NER5 21-493): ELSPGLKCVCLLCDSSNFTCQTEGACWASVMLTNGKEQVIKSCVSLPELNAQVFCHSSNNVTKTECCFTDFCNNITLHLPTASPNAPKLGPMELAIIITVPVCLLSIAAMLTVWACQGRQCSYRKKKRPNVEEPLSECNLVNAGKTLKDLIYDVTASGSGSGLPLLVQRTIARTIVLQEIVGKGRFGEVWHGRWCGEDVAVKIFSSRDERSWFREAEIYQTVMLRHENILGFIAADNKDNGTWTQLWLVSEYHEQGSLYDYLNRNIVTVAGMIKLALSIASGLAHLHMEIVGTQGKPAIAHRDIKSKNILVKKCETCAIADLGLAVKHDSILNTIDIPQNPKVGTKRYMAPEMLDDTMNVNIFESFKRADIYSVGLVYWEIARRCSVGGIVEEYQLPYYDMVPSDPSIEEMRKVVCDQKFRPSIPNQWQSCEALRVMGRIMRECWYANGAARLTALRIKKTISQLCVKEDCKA
The conditions noted are these: cited from earlier work.

Test [2] relates to ESC-derived endothelial cells. The conditions noted are these: cited from earlier work.

As for `NC(=O)c1ccc(-c2nc(-c3ccc4c(c3)OCO4)c(-c3ccccn3)[nH]2)cc1` [SB431542, 4-[4-(1,3-benzodioxol-5-yl)-5-(2-pyridinyl)-1H-imidazol-2-yl]benzamide], the “effect on expansion of the eHSC when combined with Notch agonist and growth factors” value in test [1] is given as “additive and/or synergistic effect”. In the test with human osteosarcoma cells, the “effect on TGF-β-induced proliferation of human osteosarcoma cells” value is reported as “suppress”. The “effect on general hematopoiesis from human ESC” value with human ESC is given as “enhance general hematopoiesis, though not engrafting HSC”. In addition, the “inhibition of ALK7” value at ALK7 is “potent and selective inhibitor”. Also, the “effect on proliferation, differentiation and sheet formation of ESC-derived endothelial cells” value in test [2] is reported as “stimulate”.
